Patent US5775339A, “Photodynamic therapy of pigment-related lesions” (Pharmacyclics, Inc., priority 1997, dated 1998)
Values joined by “and” are separate entries in the source; they are usually repeats but may differ in a detail not shown here. Equal values may be shown once. “Also recorded” adds a separate entry of the source.

Tests used:
mammary carcinoma SMT-F = assay: Radiolabeled [14C]-LuT2BET uptake in SMT-F bearing mice; format: in vivo; conditions: 8.64 μmol/kg; for drug uptake (tumor): radiolabeled
Description: A dose of 8.64 μmol/kg LuT2BET produced drug uptake values of 5.1 μg/g, 4.7 μg/g, and 2.8 μg/g at 3 h, 5 h, and 24 h after injection, yielding tumor:muscle ratios of 8.45:1, 10:1 and 7:1, respectively.

B16F10 melanoma = assay: PDT response (tumor regrowth and survival) to LuT2BET and photoirradiation in melanoma-bearing mice; format: in vivo, C57 mice
Description: (§1) Melanoma Cells: B16F10 melanotic melanoma murine cells were obtained from the University of California, San Francisco Cell Culture Facility. These cells are highly pigmented and metastatic in vivo. Cells were grown in Iscove's Modified Dulbeccos' Medium (Gibco, Grand Island, N.Y.) supplemented with 10% fetal bovine serum (JRH Biosciences, Woodland, Calif.) and penicillin/streptomycin (Sigma, St. Louis, Mo.).
(§2) Animals and Tumor Model: Inbred C57BL/6N female mice, (C57 mice) seven to eight weeks of age, were obtained from Simonsen Laboratories Inc. (Gilroy, Calif.). The right flanks of the mice were shaved and depiled the day prior to tumor inoculation. B16F10 cells (5×10^5 cells in 0.05 mL PBS) were injected subcutaneously into the right hind flanks. Tumor size, i.e., length (l), width (w), and height (h), was measured 3 times a week with a vernier caliper. Tumor volumes were calculated using the formula for a hemiellipsoid (Rockwell and Kallman, 1972): […]
Statistical analysis: Values are expressed as mean±SD. Values were compared using the unpaired Student's t-test. In the longevity analysis, Kaplan-Meier survival curves and log rank analysis for statistical significance were used. Statistical significance was assumed if P<0.05.
The present example provides results of a study wherein melanoma-bearing mice were administered LuT2BET and photoirradiated. […] PDT response was dependent upon drug dose, irradiation exposure and administration time.
PDT Protocol: C57 mice, bearing B16F10 melanoma as described in Example 1, were used for PDT experiments when the tumors reached surface diameters of between 4-6 mm and a depth of 2.5-3 mm. […] A 400 μm diameter fiberoptic cable coupled the laser to a microlens which produced uniform light intensity in the treatment field. Light fluences ranged between 150 and 600 J/cm^2, and the power density was set at 150 mW/cm^2 as measured with a power meter (Scientech, Boulder, Colo.). The mice were restrained with laboratory tape during photoirradiation.

[1] = design: species or system C57 mice; conditions: mouse, in vivo
From the text: Tumor Temperature Measurements: Tumor temperature during laser irradiation was monitored with a 33 gauge hypodermic thermocouple probe (Omega Engineering, Stamford, Conn.) placed percutaneously at the base of the tumor.

[2] = Absorption of LuT2BET in 5% mannitol; format: physicochemical; conditions: 732 nm
Description: LuT2BET: The synthesis and chemical analysis of lutetium texaphyrin (LuT2BET, texaphyrin A2 of Table 1 where M is lutetium) was provided in U.S. Pat. Nos. 5,252,720 and 5,457,183 and in PCT publication WO 95/10307. LuT2BET was dissolved in 5% mannitol at a 2 mM concentration. LuT2BET absorbs strongly in the far-red region of the electromagnetic spectrum, having a molar extinction coefficient of 23,000 M^-1 cm^-1 in this solution at 732 nm, the wavelength used for photoirradiation.

melanoma = format: in vivo, human; conditions: 0.5 μmol/kg i.v., 150 J/cm^2
Description: A patient with recurrent melanoma received a single dose of LuT2BET (0.5 μmol/kg; 2 mM in 5% mannitol/water; (a human equivalent of 10% of the mouse LD50)), administered intravenously, followed three hours later by photoirradiation by laser (732 nm light, 150 J/cm^2 at a power density of 75 mW/cm^2 using a LAMBDA PLUS® laser, Coherent, Palo Alto, Calif.). Four fields and a total of ten individual lesions were treated.

[3] = Biodistribution of LuT2BET in B16 melanoma-bearing mice (fluorescence of tissue extracts and plasma); format: in vivo, C57 mice
Description: The present example provides results from a study of the biodistribution of lutetium texaphyrin in melanoma-bearing mice. The biodistribution of LuT2BET was analyzed in C57 mice bearing B16 melanoma at 3 h, 5 h, and 24 h after an intravenous administration of 10 or 20 μmol/kg.
as §1, §2
Biodistribution studies were performed on tumors having surface diameters of between about 5.5-7 mm and a depth of 4-6 mm.
Tissue Extraction Procedure: LuT2BET was administered via tail-vein injection at 10 or 20 μmol/kg. Tissues and plasma were analyzed at 3, 5 or 24 h post administration of the photosensitizer. Blood was collected in tubes containing 5 mg of solid EDTA and erythrocytes were removed by centrifugation. Plasma samples (125 μL) were mixed with 10 mM TRITON X-100® and analyzed for texaphyrin content by fluorescence. […] Samples were then analyzed for lutetium texaphyrin content by fluorescence (excitation=450 nm, emission=700-800 nm). […] Sensitizer accumulation is expressed as μg drug/g tissue (wet weight) or per mL plasma.
Statistical analysis: Values are expressed as mean±SD. […]

B16 murine melanoma = B16 murine melanoma model; cited from earlier work
[4] = 10 μmol/kg, 300 J/cm^2, 5 h, n = 6
[5] = 10 μmol/kg, 500 J/cm^2, 5 h, n = 11
[6] = 20 μmol/kg, 150 J/cm^2, 24 h, n = 7
[7] = 20 μmol/kg, 300 J/cm^2, 24 h, n = 7

CC(=O)[O-].CC(=O)[O-].CCc1c(CC)c2cc3nc(cnc4cc(OCCOCCOCCOC)c(OCCOCCOCCOC)cc4ncc4nc(cc1[n-]2)C(CCCO)=C4C)C(C)=C3CCCO.O.[Lu+3] [LuT2BET]
tumor:muscle ratio (mammary carcinoma SMT-F; 3 h): 8.45 :1
drug uptake (tumor) (mammary carcinoma SMT-F; 3 h): 5.1 µg/g
tumor:muscle ratio (mammary carcinoma SMT-F; 5 h): 10 :1
drug uptake (tumor) (mammary carcinoma SMT-F; 5 h): 4.7 µg/g
tumor:muscle ratio (mammary carcinoma SMT-F; 24 h): 7 :1
drug uptake (tumor) (mammary carcinoma SMT-F; 24 h): 2.8 µg/g
MST (median survival time following PDT) (B16F10 melanoma; 10 μmol/kg, 150 J/cm^2, 3 h, n = 3): 23 days
Regrowth (time to reach ten times the original tumor volume) (B16F10 melanoma; 10 μmol/kg, 150 J/cm^2, 3 h, n = 12): 15.0 ± 3.38 days
inhibition of tumor regrowth, in words (B16F10 melanoma; 10 μmol/kg, 300 J/cm^2, 5 h): no detectable inhibition of tumor regrowth was seen
MST (median survival time following PDT) (B16F10 melanoma; [4]): 17 days
Regrowth (time to reach ten times the original tumor volume) (B16F10 melanoma; [4]): 8.5 ± 3.0 days and 8.5 days
PDT effect, in words (B16F10 melanoma; 10 μmol/kg, 400, 500 and 600 J/cm^2, 5 h): significantly increased the PDT effect
Regrowth (time to reach ten times the original tumor volume) (B16F10 melanoma; 10 μmol/kg, 400 J/cm^2, 5 h, n = 7): 11.6 ± 2.1 days
MST (median survival time following PDT) (B16F10 melanoma; 10 μmol/kg, 400 J/cm^2, 5 h, n = 8): 18.5 days
MST (median survival time following PDT) (B16F10 melanoma; [5]): 23 days
Regrowth (time to reach ten times the original tumor volume) (B16F10 melanoma; [5]): 13.2 ± 3.5 days
Regrowth (time to reach ten times the original tumor volume) (B16F10 melanoma; 10 μmol/kg, 600 J/cm^2, 5 h, n = 5, P<0.0001): 15.6 ± 3.6 days and 15.6 days
MST (median survival time following PDT) (B16F10 melanoma; 10 μmol/kg, 600 J/cm^2, 5 h, n = 6): 28 days
survival time, in words (B16F10 melanoma; 10 μmol/kg, at least about 500 J/cm^2): A significant increase in survival time
Regrowth (time to reach ten times the original tumor volume) (B16F10 melanoma; 10 μmol/kg, no light, n = 5): 7.8 ± 0.8 days
MST (median survival time following PDT) (B16F10 melanoma; 10 μmol/kg, no light, n = 6): 17.5 days
Regrowth (time to reach ten times the original tumor volume) (B16F10 melanoma; 20 μmol/kg, 150 J/cm^2, 5 h, n = 8): 10.6 ± 2.9 days
MST (median survival time following PDT) (B16F10 melanoma; 20 μmol/kg, 150 J/cm^2, 5 h, n = 8, P=0.011): 26 days
tumor regrowth, in words (B16F10 melanoma; 20 μmol/kg, 150 J/cm^2, 24 h): did not yield any significant change in tumor regrowth
MST (median survival time following PDT) (B16F10 melanoma; [6]): 19 days
Regrowth (time to reach ten times the original tumor volume) (B16F10 melanoma; [6]): 6.7 ± 0.8 days
survival time, in words (B16F10 melanoma; 20 μmol/kg, 150 and 300 J/cm^2, 5 h): A significant increase in survival time
Regrowth (time to reach ten times the original tumor volume) (B16F10 melanoma; 20 μmol/kg, 300 J/cm^2, 5 h, n = 13): 15.3 ± 2.6 days and 15.3 days
MST (median survival time following PDT) (B16F10 melanoma; 20 μmol/kg, 300 J/cm^2, 5 h, n = 13, P=0.0002): 27 days
MST (median survival time following PDT) (B16F10 melanoma; [7]): 20 days
Regrowth (time to reach ten times the original tumor volume) (B16F10 melanoma; [7]): 9.6 ± 2.1 days and 9.6 days
tumor response, in words (B16F10 melanoma; 20 μmol/kg, irradiated 5 h after administration, P<0.001): A significant response
MST (median survival time following PDT) (B16F10 melanoma; 20 μmol/kg, no light, n = 5): 15 days
Regrowth (time to reach ten times the original tumor volume) (B16F10 melanoma; 20 μmol/kg, no light, n = 5): 8.2 ± 2.3 days
tumor regrowth, in words (B16F10 melanoma; 20 μmol/kg, sensitizer alone): No significant difference in tumor regrowth
survival time, in words (B16F10 melanoma; LuT2BET alone, 10 and 20 μmol/kg, vs controls): no apparent difference between light alone, LuT2BET alone, and the controls
longevity / survival time overall, in words (B16F10 melanoma; PDT, 10 or 20 μmol/kg): increased longevity of the treated animals; also recorded: in some cases the longevity of the animals was doubled; also recorded: significantly increased the survival time of the melanoma-bearing mice
retardation of tumor growth overall, in words (B16F10 melanoma; PDT, 10 or 20 μmol/kg): significant retardation of growth of the tumor; also recorded: efficacious in the retardation of the highly pigmented B16 melanoma in C57 mice
increase in tumor temperature [1]: No measurable increase in tumor temperature
molar extinction coefficient [2]: 23,000 M^-1 cm^-1
response of remaining lesions (melanoma; several days post-therapy): the remaining lesions showed no change
response of several larger lesions (melanoma; several days post-therapy): several of the larger lesions had decreased in size
response of several smaller lesions (melanoma; several days post-therapy): several of the smaller lesions had disappeared
response of lesions at two months (melanoma; two months post-therapy): continued to show improvement
toxicity ([3]; 10 or 20 μmol/kg i.v., biodistribution study): no toxicity was observed
tumor levels compared with plasma, muscle and skin ([3]; mouse, in vivo): higher than plasma, muscle and skin at all three time points
uptake into B16 melanoma compared to SMT-F ([3]; mouse, in vivo): increased uptake of lutetium texaphyrin into B16 melanoma was observed

silicon(IV)-naphthalocyanine
tumor retardation not associated with thermal effects (B16 murine melanoma): modest
tumor selectivity (B16 murine melanoma): no tumor selectivity
